Measured values reported in paper PMC7083565, “In vitro metabolism, reaction phenotyping, enzyme kinetics, CYP inhibition and induction potential of ataluren” (Pharmacology Research & Perspectives, 2020).

How the values were obtained:
[1] = Plasma protein binding (ultrafiltration), monkey; format: in vitro ADME; conditions: male, cynomolgus, 50 to 50 000 ng/mL, mean ± SD, n = 3, read-out: percentage protein binding (converted)
Protocol: [^14C]‐Ataluren, at 50, 500, 5000, and 50 000 ng/mL or 0.175, 1.75, 17.5, and 175 µM, in male mouse, rat, dog, monkey, and human plasma, was incubated (n = 3) at 37°C for approximately 15 minutes, transferred into Centrifree® Micropartition Units (30 000 Da molecular weight cutoff, 1 mL capacity; Amicon Inc), and centrifuged at 37°C and 2000 g for approximately 10 minutes so that the amount of the sample filtered was approximately ≤ 20% of the total volume. After centrifugation, the entire ultrafiltrate was weighed and analyzed for radioactivity using liquid scintillation counting. The percent bound = (1‐Cu/Cm)×100, where Cu is the concentration of radioactivity in the ultrafiltrate and Cm is the concentration of radioactivity in the plasma before centrifugation.

[2] = Glucuronidation in liver microsomes (tissue comparison); format: in vitro ADME, human; conditions: 10 μmol/L, 60 minutes, n = 1
CYP2C9 = assay: CYP induction in primary human hepatocytes: CYP2C9; format: in vitro ADME; conditions: male, 48 h
Protocol: Human hepatocytes isolated from three Caucasian males were transferred to 48‐well collagen‐coated plates at 0.14 × 10^6 cells/well in planting media for attachment. After attachment, planting media was replaced with sandwich media and the cells were incubated until clusters were established. […] The incubation solutions were aspirated and replaced with freshly prepared incubation solutions containing ataluren for an additional 24 hours. […] The incubation solutions were then aspirated and 150 µL of K‐H buffer containing CYP substrates were added. The hepatocytes were incubated for 30 minutes for CYP2C8 (10 µmol/L amodiaquine), 1 hour for CYP3A4 (125 µmol/L testosterone), and 4 hours for CYPs 1A2 (100 µmol/L phenacetin), 2A6 (100 µmol/L coumarin), 2B6 (150 µmol/L bupropion), 2C9 (50 µmol/L tolbutamide), 2C19 (100 µmol/L S‐mephenytoin), and 2E1 (300 µmol/L chlorzoxazone) activity assays. The reactions were stopped by the addition of 0.15 mL of ice‐cold methanol except that coumarin‐treated cells were incubated with β‐glucuronidase and aryl sulfatase for additional 1 hour to free 7‐hydroxycoumarin before the addition of 0.2 mL of ice‐cold methanol. Metabolite formation in incubations with test compounds and control inhibitors was assessed with validated LC‐MS/MS methods for each of the reaction products as described in Table S2. Enzymatic activity for each CYP was calculated using the absolute amount of metabolite formed (pmol) divided by hepatocytes in the incubation (million cells) and the incubation time (minute). The relative fold induction in enzymatic activity was calculated by comparing the rate of metabolite formation for treatment groups to that of the solvent control group (reported as vehicle control%) or positive control group (reported as positive control%).

With `O=C(O)c1cccc(-c2noc(-c3ccccc3F)n2)c1` [ataluren, Ataluren] the fraction unbound at 15 min [1] was 0.003, the ataluren loss [2] was 31.4% and the “Vehicle control %, Mean” value (CYP2C9; 4 µM) was 100%. The “Vehicle control %, Mean” value (CYP2C9; 400 µM) was 146% and the “induction over vehicle control, CYP2C9 activity” value (CYP2C9; hepatocytes, 400 µmol/L) was roughly 1.5 fold.
